According to US8563259B2, “Complement-mediated thrombophilic assay” (The Trustees of the University of Pennsylvania, priority 2007, dated 2013):

System: TF expression induced by activated complement in normal primary cells (monocytes or neutrophils)
Assay: modified PT (mPT) assay with supernatant of healthy primary cells stimulated with patient serum, with or without complement inhibitor
Type: cell-based, human
Description: To test serum for complement activating activity, serum was obtained from patients diagnosed with various disorders. Serum was obtained from patients diagnosed with: antiphospholipid syndrome (APS; n=26), systemic lupus erythymatosus (SLE; n=9), rheumatoid arthritis (n=12), sepsis (n=6), metastatic cancer (n=8) and inherited hypercoagulation (n=9). Serum was also obtained from healthy individuals (n=22).
Freshly obtained primary cells (monocytes or neutrophils) obtained from healthy donors were suspended in phosphate buffered saline (PBS). In parallel, the cells were stimulated with patient serum and with patient serum that was pre-incubated for 30 minutes with either 15 μM Compstatin or 10 μM C5aR antagonist to inhibit complement. The cells were incubated with serum for approximately 2 to 2.5 hours at 37° C. Subsequently, supernatant from the serum-incubated cells was obtained by centrifugation at 1000×g for 10 minutes. The supernatant was then assessed in a modified PT assay.
In a standard PT assay, 100 μl patient plasma is mixed with 200 μl commercial thromboplastin (International Sensitivity Index (ISI) 1.0 or ISI 1.9), and time of clotting is assessed by measuring in seconds the time required for clot formation after thromboplastin is added. In the modified PT (mPT) assay, 100 μl platelet-poor plasma (PPP) from a healthy subject was used and about 120-130 μl of the commercial thromboplastin (also called tissue factor) was replaced with PBS (the total volume of clotting reaction remains stable, at 300 μl) in order to obtain a technical prolongation of the clotting time from about 12-13 seconds to about 32-37 seconds. To test the effect of the test serum on TF expression of healthy primary blood cells, the about 120-130 μl PBS was replaced with about 120-130 μl of supernatant from the primary cells stimulated with test serum. All mPT assays were performed independently by two experienced physicians.
When complement is activated in the test serum, the use of 120-130 μl supernatant in the mPT test reduces the clotting time from about 32-37 sec to about 18-20 seconds. This reduction in clotting time occurs because TF expression is induced in the normal primary cells by the activated complement. When the activated complement in the test serum has been inhibited (e.g., with Compstatin or C5aR antagonist), TF expression is not induced by activated complement in normal primary cells and the mPT remains unchanged (about 32 to about 37 seconds).

## CC[C@H](C)[C@H](N)C(=O)N[C@H]1CSSC[C@@H](C(=O)N[C@H](C(N)=O)[C@@H](C)O)NC(=O)[C@H](CCCN=C(N)N)NC(=O)[C@H](Cc2cnc[nH]2)NC(=O)[C@H](Cc2cnc[nH]2)NC(=O)CNC(=O)[C@H](Cc2c[nH]c3ccccc23)NC(=O)[C@H](CC(=O)O)NC(=O)[C@H](CCC(N)=O)NC(=O)[C@H](C(C)C)NC(=O)[C@H](C(C)C)NC1=O [Compstatin, Ile-Cys-Val-Val-Gln-Asp-Trp-Gly-His-His-Arg-Cys-Thr]
APS and SLE patients
  sensitivity of the mPT test after Compstatin-mediated inhibition of complement (pro-coagulant activity completely abolished): 100%
APS serum (n = 26), serum pre-incubated 30 minutes with 15 μM Compstatin or 10 μM C5aR antagonist
  Clotting time: 31.11 ± 0.26 s
Acute sepsis serum (n = 6), serum pre-incubated 30 minutes with 15 μM Compstatin or 10 μM C5aR antagonist
  Clotting time: 28.97 ± 0.80 s
Healthy donor serum (n = 22), serum pre-incubated 30 minutes with 15 μM Compstatin or 10 μM C5aR antagonist
  Clotting time: 31.19 ± 0.16 s
Inherited hypercoagulation serum (n = 9), serum pre-incubated 30 minutes with 15 μM Compstatin
  Clotting time: 29.01 ± 1.08 s
Metastatic cancer serum (n = 8), serum pre-incubated 30 minutes with 15 μM Compstatin
  Clotting time: 26.07 ± 1.21 s
Rheumatoid arthritis serum (n = 12), serum pre-incubated 30 minutes with 15 μM Compstatin
  Clotting time: 30.26 ± 0.81 s
SLE serum (n = 9), serum pre-incubated 30 minutes with 15 μM Compstatin or 10 μM C5aR antagonist
  Clotting time: 31.26 ± 0.17 s
Acute sepsis serum versus APS or SLE serum
  difference in clotting time before and after inhibition in acute sepsis, as share of the time difference for either APS or SLE serum: about 30%
Sera from septic patients
  effect of treatment on clotting time: partial inhibition
